Structures are written as SMILES.

18 compounds from patent US10683290B2, “Tricyclic compounds as anticancer agents” (BRISTOL-MYERS SQUIBB COMPANY, priority 2015, dated 2020) can be followed below.

The first assay deals with BRD4 (Homo sapiens, UniProt O60885). Put plainly: biochemical. It is filed as binding. As to conditions: FRET BRD4 IC50 (nM), one of the FRET assays described.
Usually IC50 stands for the concentration that inhibits the measured activity by half. Turning to `Cc1nnn(C)c1-c1ccc2c3ncc(C(C)(C)O)cc3n([C@H](c3ccccc3F)C3CCOCC3)c2c1` [Example 9, 2-[7-(dimethyl-1H-1,2,3-triazol-5-yl)-5-[(S)-(2-fluorophenyl)(oxan-4-yl)methyl]-5H-pyrido[3,2-b]indol-3-yl]propan-2-ol], the IC50 is < 5 nM.

Staying with this assay, now noted: one of the FRET assays described; read-out: FRET BRD4 IC50.
Consider `[2H]C([2H])([2H])c1nnn(C)c1-c1cc2c(cc1Cl)c1ncc(C(C)(C)O)cc1n2C(c1ccccn1)C1CCOCC1` (single isomer, unassigned) [Example 81, 2-{8-chloro-7-[4-(^2H3)methyl-1-methyl-1H-1,2,3-triazol-5-yl]-5-[oxan-4-yl(pyridin-2-yl)methyl]-5H-pyrido[3,2-b]indol-3-yl}propan-2-ol], for which the IC50 was < 1500 nM. As for `[2H]C([2H])([2H])c1nnn(C)c1-c1cc2c(cc1F)c1ncc(C(C)(C)O)cc1n2C(CCC)c1ccc(F)cn1` (single isomer, unassigned) [Example 59, 2-{8-fluoro-5-[1-(5-fluoropyridin-2-yl)butyl]-7-[4-(^2H3)methyl-1-methyl-1H-1,2,3-triazol-5-yl]-5H-pyrido[3,2-b]indol-3-yl}propan-2-ol], the IC50 was < 5 nM. In the case of `[2H]C([2H])([2H])c1nnn(C)c1-c1cc2c(cc1F)c1ncc(C(C)(C)O)cc1n2C(c1ccc(F)cn1)C1CCOCC1` (single isomer, unassigned) [Example 44, 2-{8-fluoro-5-[(5-fluoropyridin-2-yl)(oxan-4-yl)methyl}-7-[4-(^2H3)methyl-1-methyl-1H-1,2,3-triazol-5-yl]-5H-pyrido[3,2-b]indol-3-yl]propan-2-ol], the 50% inhibitory concentration (IC50) is < 1500 nM. Take `[2H]C([2H])([2H])c1nnn(C)c1-c1cc2c(cc1Cl)c1ncc(C(C)(C)O)cc1n2C(c1ncccc1F)C1CCOCC1` (single isomer, unassigned) [Example 76, 2-{8-Chloro-5-[(3-fluoropyridin-2-yl)(oxan-4-yl)methyl]-7-[4-(^2H3)methyl-1-methyl-1H-1,2,3-triazol-5-yl]-5H-pyrido[3,2-b]indol-3-yl}propan-2-ol]: the IC50 was < 1500 nM. On the same count and under the same terms, the figure for `[2H]C([2H])([2H])c1nnn(C)c1-c1cc2c(cc1F)c1ncc(C(C)(C)O)cc1n2C(c1ncccc1OC)C1CCOCC1` (single isomer, unassigned) [Example 40, 2-{8-fluoro-5-[(3-methoxypyridin-2-yl)(oxan-4-yl)methyl}-7-[4-(^2H3)methyl-1-methyl-1H-1,2,3-triazol-5-yl]-5H-pyrido[3,2-b]indol-3-yl]propan-2-ol] is < 1500 nM. On to `Cc1nnn(C)c1-c1ccc2c3ncc(C(C)(C)O)cc3n(C(CCC(F)(F)F)c3ccccn3)c2c1` (single isomer, unassigned) [Example 6, 2-[7-(dimethyl-1H-1,2,3-triazol-5-yl)-5-[4,4,4-trifluoro-1-(pyridin-2-yl)butyl]-5H-pyrido[3,2-b]indol-3-yl]propan-2-ol], for which the IC50 was < 5 nM.

`Cc1nnn(C)c1-c1cc(F)c2c3ncc(C(C)(C)O)cc3n([C@H](c3ccccc3)C3CCOCC3)c2c1` [Example 11, 2-[7-(Dimethyl-1H-1,2,3-triazol-5-yl)-9-fluoro-5-[(S)-oxan-4-yl(phenyl)methyl]-5H-pyrido[3,2-b]indol-3-yl]propan-2-ol]: the IC50 is < 1 nM. Take `[2H]C([2H])([2H])c1nnn(C)c1-c1cc2c(cc1F)c1ncc(C(C)(C)O)cc1n2C(c1ncccn1)C1CCOCC1` (single isomer, unassigned) [Example 47, 2-{8-fluoro-7-[4-(^2H3)methyl-1-methyl-1H-1,2,3-triazol-5-yl]-5-[oxan-4-yl(pyrimidin-2-yl)methyl]-5H-pyrido[3,2-b]indol-3-yl}propan-2-ol]: the IC50 was < 5 nM.

For the compound `[2H]C([2H])([2H])c1nnn(C)c1-c1cc2c(cc1F)c1ncc(C(C)(C)O)cc1n2C(CCC)c1ncccc1F` (single isomer, unassigned) [Example 38, 2-{8-fluoro-5-[1-(3-fluoropyridin-2-yl)butyl]-7-[4-(^2H3)methyl-1-methyl-1H-1,2,3-triazol-5-yl}-5H-pyrido[3,2-b]indol-3-yl]propan-2-ol], the IC50 was < 1 nM. For `[2H]C([2H])([2H])c1nnn(C)c1-c1cc2c(cc1F)c1ncc(C(C)(C)O)cc1n2C(c1ccccc1)C1(C)COC1` (single isomer, unassigned) [Example 64, 2-{8-fluoro-7-[4-(^2H3)methyl-1-methyl-1H-1,2,3-triazol-5-yl]-5-[(3-methyloxetan-3-yl)(phenyl)methyl]-5H-pyrido[3,2-b]indol-3-yl}propan-2-ol], the IC50 is < 5 nM.

With `[2H]C([2H])([2H])c1nnn(C)c1-c1cc2c(cc1Cl)c1ncc(C(C)(C)O)cc1n2C(c1cc(C)on1)C1CCOCC1` (single isomer, unassigned) [Example 78, 2-{8-chloro-5-[(5-methyl-1,2-oxazol-3-yl)(oxan-4-yl)methyl]-7-[4-(^2H3)methyl-1-methyl-1H-1,2,3-triazol-5-yl]-5H-pyrido[3,2-b]indol-3-yl}propan-2-ol], the IC50 was < 1500 nM. Consider `[2H]C([2H])([2H])c1nnn(C)c1-c1cc2c(cc1F)c1ncc(C(C)(C)O)cc1n2C(C1=CCCOC1)c1ccccc1` (racemic) [Example 61, 2-{5-[5,6-dihydro-2H-pyran-3-yl(phenyl)methyl]-8-fluoro-7-[4-(^2H3)methyl-1-methyl-1H-1,2,3-triazol-5-yl]-5H-pyrido[3,2-b]indol-3-yl}propan-2-ol], for which the IC50 was < 5 nM. As to `[2H]C([2H])([2H])c1nnn(C)c1-c1cc2c(cc1F)c1ncc(C(C)(C)O)cc1n2C(CCC)c1ncccc1F` (single isomer, unassigned) [Example 39, 2-{8-fluoro-5-[1-(3-fluoropyridin-2-yl)butyl]-7-[4-(^2H3)methyl-1-methyl-1H-1,2,3-triazol-5-yl}-5H-pyrido[3,2-b]indol-3-yl]propan-2-ol], the half-maximal inhibitory concentration (IC50) is < 5 nM.

With `[2H]C([2H])([2H])c1nnn(C)c1-c1cc2c(cc1F)c1ncc(C(C)(C)O)cc1n2C(c1ncccc1F)C1CCOCC1` (stereo not drawn) [Example 31, 2-{8-Fluoro-5-[(3-fluoropyridin-2-yl)(oxan-4-yl)methyl]-7-[4-(^2H3)methyl-1-methyl-1H-1,2,3-triazol-5-yl]-5H-pyrido[3,2-b]indol-3-yl}propan-2-ol], the IC50 was < 5 nM. As for `[2H]C([2H])([2H])c1nnn(C)c1-c1cc2c(cc1F)c1ncc(C(C)(C)O)cc1n2C(CC1COC1)c1ccccc1` (racemic) [Example 66, 2-{8-fluoro-7-[4-(^2H3)methyl-1-methyl-1H-1,2,3-triazol-5-yl]-5-[2-(oxetan-3-yl)-1-phenylethyl]-5H-pyrido[3,2-b]indol-3-yl}propan-2-ol], the half-inhibitory concentration (IC50) is < 1 nM. On to `[2H]C([2H])([2H])c1nnn(C)c1-c1cc2c(cc1F)c1ncc(C(C)(C)O)cc1n2C(c1cc(C)on1)C1CCOCC1` (stereo not drawn) [Example 34, 2-{8-Fluoro-5-[(5-methyl-1,2-oxazol-3-yl)(oxan-4-yl)methyl]-7-[4-(^2H3)methyl-1-methyl-1H-1,2,3-triazol-5-yl]-5H-pyrido[3,2-b]indol-3-yl}propan-2-ol], for which the half-inhibitory concentration (IC50) was < 1 nM.

Consider `[2H]C([2H])([2H])c1nnn(C)c1-c1cc2c(cc1F)c1ncc(C(C)(C)O)cc1n2C(c1ncccc1F)C1CCOCC1` (stereo not drawn) [Example 30, 2-{8-Fluoro-5-[(3-fluoropyridin-2-yl)(oxan-4-yl)methyl]-7-[4-(^2H3)methyl-1-methyl-1H-1,2,3-triazol-5-yl]-5H-pyrido[3,2-b]indol-3-yl}propan-2-ol], for which the IC50 is < 1 nM.
